Structures are written as SMILES. Where “and” joins values, the source holds several entries; their conditions need not be identical. Equal entries are not always repeated.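 Where inhibition never reached the appropriate level, the endpoint shown equals the highest concentration tested. Otherwise, values were interpolated linearly from a five-concentration, 48-hour dose response in 96-well plates. GI50 = concentration required for 50% inhibition of growth. TGI: concentration producing complete growth inhibition.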

In the test the test system is MDA-MB-468 breast. The test can be described thus: DTP human tumour cell line panel, 48 h.
Broadly, the GI50 is the concentration that inhibits growth by half. One may read the TGI as the concentration at which net growth stops. A low value points to more potent growth arrest. With `Cn1cc(C2=C(c3c4n(c5ccccc35)CCCCC4)C(=O)NC2=O)c2ccccc21`, the GI50 is 1170 nM and the concentration for total growth inhibition (TGI) was more than 19900 nM.

Regarding `CN1CCCCC1CCN1c2ccccc2Sc2ccc(Cl)cc21` (centres undefined), the GI50 is 1940 nM and the TGI stood at 4440 nM.

With `OCc1cc2ccccc2c2c3c(ccc12)OCO3`, the GI50 is 18900 nM and the TGI is 65100 nM.

For `C=CC(=O)Nc1cc(Nc2ncc(C(=O)OC(C)C)c(-c3cn(C)c4ccccc34)n2)c(OC)cc1N(C)CCN(C)C`, the GI50 is less than 10 nM and the TGI was 69 nM.

As to `Cc1cc(-c2nc(C(=O)Nc3cc4oc(N5CCOCC5)nc4nc3N3CC[C@@H](O)C3)co2)ccn1`, the GI50 was 13300 nM and the TGI amounted to 64800 nM.

As for `COc1cccc(C2c3cc4c(cc3OC(C)(N3CCCC3)C2C)OCO4)c1O` (centres undefined), the GI50 was 4660 nM and the TGI was more than 100000 nM.

`CCN1/C(=C\c2cc[n+](CC)c3ccccc23)C=Cc2ccccc21`: the 50% growth inhibitory concentration (GI50) was 109 nM and the TGI is 519 nM.

Consider `C=CCO[C@H]1CO[C@H]2[C@@H]1OC[C@@H]2Oc1ccc(Nc2ccnc(Nc3ccc(O[C@H]4CO[C@H]5[C@@H]4OC[C@@H]5OCC=C)c(Cl)c3)n2)cc1Cl`, for which the GI50 was 1620 nM and the TGI stood at 3130 nM.

For the molecule `O=C(Nc1ccc(-n2ccc3c(NC(=O)c4ccccc4)nccc32)cc1)c1ccc(Cl)c(C(F)(F)F)c1`, the GI50 is 919 nM and the TGI is 5650 nM.

As to `OC1CSSC1Cn1cnc2c(Nc3ccc(OCc4cccc(F)c4)c(Cl)c3)ncnc21` (centres undefined), the GI50 is 786 nM and the concentration for total growth inhibition (TGI) amounted to 2120 nM.

For the molecule `Nc1c(C(=O)c2cccc(CCS(N)(=O)=O)c2)cnn1-c1ccc(F)cc1`, the GI50 is more than 17700 nM and the TGI was more than 25000 nM.

For the molecule `COc1cc2c(c(OC)c1OC)-c1ccc(NNC(N)=S)c(=O)cc1[C@@H](NC(C)=O)CC2`, the concentration for 50% growth inhibition (GI50) was 233 nM.

For `Cc1nc2sccn2c1-c1csc(Nc2ccccc2Cl)n1`, the GI50 is 719 nM and the total growth inhibition concentration (TGI) was found to be 5840 nM.

`COc1cc(/C=N\NC(=O)CN2CCN(c3cc4c(cc3F)c(=O)c(C(=O)N/N=C/c3cc(OC)c(OC)c(OC)c3)cn4C3CC3)CC2)cc(OC)c1OC`: the 50% growth inhibitory concentration (GI50) is 221 nM and the total growth inhibition concentration (TGI) was 535 nM.

With `COC1/C=C/OC2(C)Oc3c(C)c(O)c4c(O)c(c(/C=N/Nc5ccc([N+](=O)[O-])cc5[N+](=O)[O-])c(O)c4c3C2=O)NC(=O)C(C)=C/C=C/C(C)C(O)C(C)C(O)C(C)C(OC(C)=O)C1C` (centres undefined), the GI50 is 1110 nM and the concentration for total growth inhibition (TGI) is 2860 nM.

For `COc1ccc([C@H]2[C@H](O)C(=O)N2c2cc(OC)c(OC)c(OC)c2)cc1F`, the concentration for 50% growth inhibition (GI50) was less than 10 nM and the total growth inhibition concentration (TGI) is more than 100000 nM.

For the molecule `Cc1ccc2c(C)c3c(ccc4ccccc43)c[n+]2c1`, the GI50 was 408 nM and the TGI was determined as 2240 nM.

With `Fc1[nH]nc2ccc([C@@H]3Nc4ccc5[nH]ncc5c4[C@H]4C5CCC(C5)[C@@H]34)cc12` (some centres undefined), the GI50 was 361 nM and the concentration for total growth inhibition (TGI) came out at 12000 nM.

In the case of `O=C1NC(=NCCc2cccc(F)c2)S/C1=C\c1ccc2ncccc2c1`, the GI50 was 1180 nM and the concentration for total growth inhibition (TGI) was more than 20400 nM.

In the case of `Cc1ccc(NC(=O)Nc2ccc(-c3cccnc3)cc2N2CCC(CO)CC2)cc1`, the GI50 was 2490 nM and the total growth inhibition concentration (TGI) amounted to 7120 nM.

Turning to `C[C@@H](Oc1cc(-n2cnc3ccc(CN4CCN(C)CC4)cc32)sc1C(N)=O)c1ccccc1C(F)(F)F`, the concentration for 50% growth inhibition (GI50) was < 10 nM and 4 nM; the total growth inhibition concentration (TGI) is 1400 nM and 2870 nM.

`CC1CCc2nc[nH]c(=O)c21` (centres undefined): the GI50 was more than 100000 nM and the concentration for total growth inhibition (TGI) is more than 100000 nM.

As for `COC(=O)/C=C1\S/C(=N\NC(=O)c2cc3ccc2/C=C\c2ccc(cc2)/C=C\3)N(c2ccccc2)C1=O`, the GI50 is 1840 nM and the total growth inhibition concentration (TGI) amounted to 3740 nM.

Consider `Cc1ccnc2c1ccc1c(C)ccnc12`, for which the GI50 is 360 nM and the TGI was found to be 2720 nM.

On to `FC(F)(F)c1cccc(Nc2nc(-c3ccccc3)nc3ncccc23)c1`, for which the GI50 is 2420 nM and the TGI turned out to be 7710 nM.
